Paper PMC4894406, “Results of an abbreviated phase-II study with the Akt Inhibitor MK-2206 in Patients with Advanced Biliary Cancer” (Scientific Reports, 2015)
“Also recorded” adds a separate entry of the source.

Tests used:
[1] = Phase II study: toxicities (NCI-CTCAE v4.0); assay type: in vivo, human; details: 200 mg weekly, n = 8
Protocol: The starting dose and schedule for MK-2206 was 200 mg given weekly in 28-day cycles without interruption. Treatment was administered on an outpatient basis. Two levels of dose reductions were planned (135 mg weekly and 90 mg weekly) with patients taken off the study for additional dose reductions.
Radiologic assessment was done by computed tomography every 8 weeks and responses were measured according to RECIST 1.1[17]. Toxicities were defined by the NCI-Common Terminology Criteria of Adverse Events version 4.0.

[2] = tested on: advanced, refractory biliary cancer; test: Phase II study: efficacy (RECIST 1.1, PFS, OS); assay type: in vivo, human; details: for Overall Survival / Progression-Free Survival: 200 mg weekly (text b31 gives months)
Text: This was a National Cancer Institute (NCI)/Cancer Therapy Evaluation Program (CTEP)-sponsored phase II, open label, multicenter trial led by The Ohio State University with the participation of Georgetown University and Case Western University (ClinicalTrials.gov NCT01425879, date of registration 08/27/2011). MK-2206 was provided by NCI/CTEP. The primary objective of this study was to determine the overall response rate (complete response and partial response) as defined by RECIST[17]. Tumor tissue samples were required from all patients prior to enrollment. Secondary objectives included overall survival (OS), progression-free survival (PFS), and the presence of any mutations in the pI3k/AKT pathway and the evaluation of toxicities related to MK-2206. The starting dose and schedule for MK-2206 was 200 mg given weekly in 28-day cycles without interruption. Treatment was administered on an outpatient basis. Two levels of dose reductions were planned (135 mg weekly and 90 mg weekly) with patients taken off the study for additional dose reductions. Radiologic assessment was done by computed tomography every 8 weeks and responses were measured according to RECIST 1.1[17]. Toxicities were defined by the NCI-Common Terminology Criteria of Adverse Events version 4.0.

human Akt (Akt-2) = details: cited from earlier work
CYP3A4 = details: cited from earlier work
breast cancer = tested on: breast cancer; parameters: method as in PMID 24252402; details: 48-hr plasma concentration, patients with breast cancer; cited from earlier work

## NC1(c2ccc(-c3nc4ccn5c(=O)[nH]nc5c4cc3-c3ccccc3)cc2)CCC1 [MK-2206]
[1]
  Anemia, All toxicities (%): 12.5%
  Anemia, Grade 1 (%): 12.5%
  Constipation, All toxicities (%): 12.5%
  Constipation, Grade 1 (%): 12.5%
  Diarrhea, All toxicities (%): 50%
  Diarrhea, Grade 1 (%): 25%
  Diarrhea, Grade 2 (%): 12.5%
  Diarrhea, Grade 3 (%): 12.5%
  Dry Mouth, All toxicities (%): 25%
  Dry Mouth, Grade 1 (%): 25%
  Dry Skin, All toxicities (%): 38%
  Dry Skin, Grade 1 (%): 25%
  Dry Skin, Grade 2 (%): 12.5%
  Fatigue, All toxicities (%): 50%
  Fatigue, Grade 1 (%): 25%
  Fatigue, Grade 2 (%): 25%
  Fever, Grade 1 (%): 25%
  Hand Foot Syndrome, All toxicities (%): 38%
  Hand Foot Syndrome, Grade 1 (%): 25%
  Hand Foot Syndrome, Grade 2 (%): 12.5%
  Hyponatremia, All toxicities (%): 12.5%
  Hypophosphatemia, All toxicities (%): 25%
  Hypophosphatemia, Grade 2 (%): 25%
  Leukopenia, All toxicities (%): 12.5%
  Leukopenia, Grade 1 (%): 12.5%
  Lymphopenia, All toxicities (%): 75%
  Lymphopenia, Grade 1 (%): 25%
  Lymphopenia, Grade 2 (%): 12.5%
  Lymphopenia, Grade 3 (%): 37.5%
  Macular Rash, All toxicities (%): 63%
  Macular Rash, Grade 1 (%): 12.5%
  Macular Rash, Grade 2 (%): 12.5%
  Macular Rash, Grade 3 (%): 38%
  Mucositis, All toxicities (%): 38%
  Mucositis, Grade 1 (%): 38%
  Nausea, All toxicities (%): 38%
  Nausea, Grade 1 (%): 38%
  Thrombocytopenia, All toxicities (%): 25%
  Thrombocytopenia, Grade 1 (%): 12.5%
  Thrombocytopenia, Grade 3 (%): 12.5%
  Vomiting, All toxicities (%): 50%
  Vomiting, Grade 1 (%): 50%
  overall toxicity / tolerability: mild and tolerable; also recorded: mostly grade 1 or 2 and were reversible
[1]; felt to be unrelated to MK-2206
  Hyponatremia, Grade 4 (%): 12.5%
[2]; 8 patients, 200 mg weekly
  Median PFS: 1.7 months
  best response for all patients: stable disease
  median OS: 3.5 months
  objective response: No patients had an objective response
[2]; observed in two patients
  duration of stable disease: exceeding 12 weeks
[2]; subject 1001, Intrahepatic, 200 mg weekly
  Best response: Progressive disease
[2]; subject 1001, Intrahepatic
  Overall Survival: 2.2
  Progression-Free Survival: 1.8
[2]; subject 1002, Intrahepatic, 200 mg weekly
  Best response: Progressive disease
[2]; subject 1002, Intrahepatic
  Overall Survival: 3.1
  Progression-Free Survival: 0.5
[2]; subject 1003, Intrahepatic, 200 mg weekly
  Best response: Progressive disease
[2]; subject 1003, Intrahepatic
  Overall Survival: 3.8
  Progression-Free Survival: 1.2
[2]; subject 1004, Intrahepatic, 200 mg weekly
  Best response: Progressive disease
[2]; subject 1004, Intrahepatic
  Overall Survival: 3.1
  Progression-Free Survival: 1.6
[2]; subject 1005, Intrahepatic, 200 mg weekly
  Best response: Stable disease
[2]; subject 1005, Intrahepatic
  Overall Survival: 20.2
  Progression-Free Survival: 3.4
[2]; subject 1007, Extrahepatic, 200 mg weekly
  Best response: Progressive disease
[2]; subject 1007, Extrahepatic
  Overall Survival: 6.7
  Progression-Free Survival: 6.6
[2]; subject 2006, Intrahepatic, 200 mg weekly
  Best response: Progressive disease
[2]; subject 2006, Intrahepatic
  Overall Survival: 2.8
  Progression-Free Survival: 1.2
[2]; subject 2008, Extrahepatic, 200 mg weekly
  Best response: Stable disease
[2]; subject 2008, Extrahepatic
  Overall Survival: 6.1
  Progression-Free Survival: 5.6
Human Akt (Akt-2)
  IC50: 12 nM
CYP3A4
  metabolism in human microsomes: converted to oxidative metabolites in human microsomes via CYP3A4
Breast cancer
  plasma concentration reported to be effective: ≥ 22.7 ng/mL
